Test results reported in ChEMBL document CHEMBL1125025, “11 beta-methoxy-, 11 beta-ethyl- and 17 alpha-ethynyl-substituted 16 alpha-fluoroestradiols: receptor-based imaging agents with enhanced uptake efficiency and selectivity” (J Med Chem, 1990).

Key:
[1] = molecular target: T1, Sex hormone-binding globulin (Homo sapiens) (UniProt P04278); experiment: Binding affinity against Sex steroid binding protein(SBP) of human serum; design: reference not given here
T1 sequence (whole entry): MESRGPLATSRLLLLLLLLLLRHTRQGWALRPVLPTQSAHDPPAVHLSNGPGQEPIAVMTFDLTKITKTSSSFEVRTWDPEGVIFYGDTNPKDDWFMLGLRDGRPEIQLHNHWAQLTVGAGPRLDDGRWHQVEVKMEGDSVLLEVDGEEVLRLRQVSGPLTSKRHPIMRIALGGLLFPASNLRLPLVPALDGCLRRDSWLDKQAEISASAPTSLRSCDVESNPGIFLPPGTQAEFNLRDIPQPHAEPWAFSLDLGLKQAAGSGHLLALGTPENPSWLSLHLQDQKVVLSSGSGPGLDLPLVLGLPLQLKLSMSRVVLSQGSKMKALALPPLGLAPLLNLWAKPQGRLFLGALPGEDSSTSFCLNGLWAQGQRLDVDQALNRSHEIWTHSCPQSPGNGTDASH

[2] = molecular target: T2, Alpha-fetoprotein (Rattus norvegicus) (UniProt P02773); experiment: Binding affinity against Alphafetoprotein (AFP), in rodents.; design: reference not given here
T2 sequence (whole entry): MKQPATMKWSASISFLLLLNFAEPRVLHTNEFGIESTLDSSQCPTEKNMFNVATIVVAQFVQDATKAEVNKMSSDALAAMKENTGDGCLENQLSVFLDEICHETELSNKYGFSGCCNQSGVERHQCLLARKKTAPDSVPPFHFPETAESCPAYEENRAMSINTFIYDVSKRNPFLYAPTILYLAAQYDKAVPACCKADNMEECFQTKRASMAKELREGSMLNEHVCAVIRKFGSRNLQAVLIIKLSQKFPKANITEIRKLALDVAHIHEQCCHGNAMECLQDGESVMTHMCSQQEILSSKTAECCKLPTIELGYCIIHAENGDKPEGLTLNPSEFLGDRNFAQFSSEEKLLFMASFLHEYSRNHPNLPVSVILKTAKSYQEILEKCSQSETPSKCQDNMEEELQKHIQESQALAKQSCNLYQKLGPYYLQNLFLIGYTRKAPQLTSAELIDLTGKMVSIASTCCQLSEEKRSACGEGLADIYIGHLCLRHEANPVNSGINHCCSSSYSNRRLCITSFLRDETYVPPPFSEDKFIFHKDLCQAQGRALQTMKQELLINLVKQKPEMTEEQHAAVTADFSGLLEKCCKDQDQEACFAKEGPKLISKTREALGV

Row | relative binding affinity (RBA) [1] | relative binding affinity (RBA) [2] | SMILES
1 | 9.5 | 101 | C[C@]12CC[C@@H]3c4ccc(O)cc4CC[C@H]3[C@@H]1C[C@@H](F)[C@@H]2O
2 | 40.8 | 1.21 | CC[C@H]1C[C@]2(C)[C@@H](O)CC[C@H]2[C@@H]2CCc3cc(O)ccc3[C@@H]12
3 | 2.24 | 1.47 | CC[C@H]1C[C@]2(C)[C@@H](O)[C@H](F)C[C@H]2[C@@H]2CCc3cc(O)ccc3[C@@H]12
4 | 100 | 100 | C[C@]12CC[C@@H]3c4ccc(O)cc4CC[C@H]3[C@@H]1CC[C@@H]2O
5 | 1.72 | 0.26 | CO[C@H]1C[C@]2(C)[C@@H](O)CC[C@H]2[C@@H]2CCc3cc(O)ccc3[C@H]21
6 | 0.53 | 0.51 | CO[C@H]1C[C@]2(C)[C@@H](O)[C@H](F)C[C@H]2[C@@H]2CCc3cc(O)ccc3[C@H]21
7 | 1.81 | 3.51 | C#C[C@]1(O)CC[C@H]2[C@@H]3CCc4cc(O)ccc4[C@H]3CC[C@@]21C
8 | 0.43 | 0.94 | C#C[C@]1(O)[C@H](F)C[C@H]2[C@@H]3CCc4cc(O)ccc4[C@H]3CC[C@@]21C
